Data taken from patent publication US11066414B2, “Cot modulators and methods of use thereof” (Gilead Sciences, Inc., priority 2015, dated 2021).
pEC50, pIC50: −log10 of the molar value. Like-named read-outs stand apart in the source and are kept apart here.

Legend:
TNFα = experiment: Cot Monocyte TNFα Cell Based Assay
Human Cot = Human Cot (Homo sapiens (Human), UniProt P41279); experiment: High Throughput Cot Biochemical Assay
[1] = Homo sapiens, Monocyte, read-out: EC50 TNF, LPS-stimulated human monocytes, TNFα TR-FRET
[2] = IC50 HTRF, Cot HTRF (TR-FRET KinEASE) biochemical assay, 400 μM ATP
[3] = Homo sapiens, Monocyte, read-out: EC50 TNF, LPS-stimulated human monocytes, TNFα
[4] = IC50 HTRF, Cot HTRF (TR-FRET) biochemical assay

Human Cot, sequence (P41279 30-397): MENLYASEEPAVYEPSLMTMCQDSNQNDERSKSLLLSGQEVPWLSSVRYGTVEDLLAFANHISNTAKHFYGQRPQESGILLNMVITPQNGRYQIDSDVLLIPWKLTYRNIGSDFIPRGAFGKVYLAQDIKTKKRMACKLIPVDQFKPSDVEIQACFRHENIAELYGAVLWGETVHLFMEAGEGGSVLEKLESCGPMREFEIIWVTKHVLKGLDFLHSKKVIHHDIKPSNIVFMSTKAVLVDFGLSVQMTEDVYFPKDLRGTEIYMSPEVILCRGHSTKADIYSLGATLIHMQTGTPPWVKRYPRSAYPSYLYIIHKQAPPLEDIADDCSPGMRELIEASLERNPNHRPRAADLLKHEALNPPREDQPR

| Compound | pEC50 (TNFα; [3]) | pIC50 (Human Cot; [4]) | further results |
| --- | --- | --- | --- |
| CC(C)(C)CNc1c(C#N)cnc2c(Cl)cc(N[C@H](c3cn(C4(C(F)(F)F)CC4)nn3)c3ccc(Cl)c4ncccc34)cc12 [Example 921, (S)-8-chloro-6-(((8-chloroquinolin-5-yl)(1-(1-(trifluoromethyl)cyclopropyl)-1H-1,2,3-triazol-4-yl)methyl)amino)-4-(neopentylamino)quinoline-3-carbonitrile] | – | – | pEC50 (TNFα; [1]): 6.73; pIC50 (Human Cot; [2]): 7.77 |
| 6-(((S)-(1-((1R,2R)-2- (difluoromethyl)cyclopropyl)- 1H-1,2,3-triazol-4-yl)(6-fluoro- 2-methylpyridin- 3-yl)methyl)amino)-4- [Example 834] | – | – | pEC50 (TNFα; read-out: EC50 TNF, LPS-stimulated human monocytes, TNFα TR-FRET): 7.17; pIC50 (Human Cot; read-out: IC50 HTRF, Cot HTRF (TR-FRET KinEASE) biochemical assay, 400 μM ATP): 8.30 |
| Cc1nc(F)ccc1[C@H](Nc1cc(Cl)c2ncc(C#N)c(NCC3(C)CCC3)c2c1)c1cn(C2(C(F)F)CC2)nn1 [Example 502, (S)-8-chloro-6-(((1-(1-(difluoromethyl)-cyclopropyl)-1H-1,2,3-triazol-4-yl)(6-fluoro-2-methylpyridin-3-yl)methyl)-amino)-4-(((1-methylcyclobutyl)methyl)-amino) quinoline-3-carbonitrile] | 6.69 | 8.22 | – |
| Cn1ccc2c([C@H](Nc3cc(Cl)c4ncc(C#N)c(NCC(C)(C)C)c4c3)c3cn(C45CC(C4)C5)nn3)cccc2c1=O [Example 713, (S)-6-(((1-(bicyclo[1.1.1]pentan-1-yl)-1H-1,2,3-triazol-4-yl)(2-methyl-1-oxo-1,2-dihydroisoquinolin-5-yl)methyl)amino)-8-chloro-4-(neopentylamino)quinoline-3-carbonitrile] | 7.68 | 8.70 | – |
| CC(C)n1cc([C@@H](Nc2cc(Cl)c3ncc(C#N)c(N[C@@H](c4ccccc4)C(C)(C)O)c3c2)c2cccnc2)nn1 [Example 187, 8-chloro-4-(((S)-2-hydroxy-2-methyl-1-phenylpropyl)amino)-6-(((S)-(1-isopropyl-1H-1,2,3-triazol-4-yl)(pyridin-3-yl)methyl)amino)-quinoline-3-carbonitrile] | 5.67 | 7.17 | – |
| Cc1nc(F)ccc1[C@H](Nc1cc(C#N)c2ncc(C#N)c(NCC(C)(C)C)c2c1)c1nnn(C2CC2)c1F [Example 681, (S)-6-(((1-cyclopropyl-5-fluoro-1H-1,2,3-triazol-4-yl)(6-fluoro-2-methylpyridin-3-yl)methyl)amino)-4-(neopentylamino)quinoline-3,8-dicarbonitrile] | 7.59 | 8.70 | – |
| CCN1CCc2c([C@H](Nc3cc(Cl)c4ncc(C#N)c(Nc5ccc(F)c(Cl)c5)c4c3)c3cn(C(C)C)nn3)csc2C1 [Example 344, (S)-8-chloro-4-((3-chloro-4-fluorophenyl)amino)-6-(((6-ethyl-4,5,6,7-tetrahydrothieno[2,3-c]pyridin-3-yl)(1-isopropyl-1H-1,2,3-triazol-4-yl)methyl)amino)quinoline-3-carbonitrile] | 6.82 | 8.52 | – |
| CC(C)(C)CNc1c(C#N)cnc2c(Cl)cc(N[C@@H](c3ccc4cccnc4c3)c3cn(C4(C(F)(F)F)CC4)nn3)cc12 [Example 698, (S)-8-chloro-4-(neopentylamino)-6-((quinolin-7-yl(1-(1-(trifluoromethyl)cyclopropyl)-1H-1,2,3-triazol-4-yl)methyl)amino)quinoline-3-carbonitrile] | 6.16 | 7.57 | – |
| CC[C@@H](Nc1c(C#N)cnc2c(C#N)cc(N[C@H](c3cn(C4CC4)nn3)c3cccc4ncsc34)cc12)c1ccccc1 [Example 411, 6-(((S)-benzo[d]thiazol-7-yl(1-cyclopropyl-1H-1,2,3-triazol-4-yl)methyl)amino)-4-(((R)-1-phenylpropyl)amino)quinoline-3,8-dicarbonitrile] | 7.12 | 8.30 | – |
| [2H]C(Nc1cc(Cl)c2ncc(C#N)c(N[C@@H](CCC#N)c3ccccc3)c2c1)(c1ccc(F)nc1)c1cn(C2CC2)nn1 (stereo partly drawn) [Example 88, 8-chloro-4-(((S)-3-cyano-1-phenylpropyl)amino)-6-(((1-cyclopropyl-1H-1,2,3-triazol-4-yl)(6-fluoropyridin-3-yl)methyl-d)amino)quinoline-3-carbonitrile] | < 6.00 | 5.94 | – |
| COc1c([C@@H](Nc2cc(C#N)c3ncc(C#N)c(NCC(C)(C)C)c3c2)c2ccc(F)nc2C)nnn1C1(C(F)F)CC1 [Example 964, (S)-6-(((1-(1-(difluoromethyl)cyclopropyl)-5-methoxy-1H-1,2,3-triazol-4-yl)(6-fluoro-2-methylpyridin-3-yl)methyl)amino)-4-(neopentylamino)quinoline-3,8-dicarbonitrile] | – | – | pEC50 (TNFα; [1]): 6.98; pIC50 (Human Cot; [2]): 8.52 |
| CC1(C)COCC[C@H]1Nc1c(C#N)cnc2c(C#N)cc(N[C@H](c3cn(C4(C(F)(F)F)CC4)nn3)c3cccc4ncsc34)cc12 [Example 474, 6-(((S)-benzo[d]thiazol-7-yl(1-(1-(trifluoromethyl)cyclopropyl)-1H-1,2,3-triazol-4-yl)methyl)amino)-4-(((R)-3,3-dimethyltetrahydro-2H-pyran-4-yl)amino)quinoline-3,8-dicarbonitrile] | 7.59 | 8.70 | – |
| Cn1cc([C@@H](Nc2cc(Cl)c3ncc(C#N)c(NCC(C)(C)C)c3c2)c2cccc3c(=O)n(C)ccc23)nn1 [Example 790, (S)-8-chloro-6-(((2-methyl-1-oxo-1,2-dihydroisoquinolin-5-yl)(1-methyl-1H-1,2,3-triazol-4-yl)methyl)amino)-4-(neopentylamino)quinoline-3-carbonitrile] | 7.09 | 8.30 | – |
| Cc1ncsc1[C@H](Nc1cc(Cl)c2ncc(C#N)c(NCC(C)(C)C)c2c1)c1cn(C2(C(F)F)CC2)nn1 [Example 619, (R)-8-chloro-6-(((1-(1-(difluoromethyl)-cyclopropyl)-1H-1,2,3-triazol-4-yl)(4-methylthiazol-5-yl)methyl)amino)-4-(neopentylamino)quinoline-3-carbonitrile] | 6.72 | 8.15 | – |
| N#Cc1cnc2c(Cl)cc(N[C@@H](c3cccnc3)c3c[nH]nn3)cc2c1N[C@@H](CCO)c1ccccc1 [Example 178, 8-chloro-4-(((S)-3-hydroxy-1-phenylpropyl)amino)-6-(((S)-pyridin-3-yl(1H-1,2,3-triazol-4-yl)methyl)amino)quinoline-3-carbonitrile] | 6.03 | 8.15 | – |
| [2H]C([2H])(Nc1c(C#N)cnc2c(Cl)cc(N[C@H](c3cn(C4(C(F)F)CC4)nn3)c3ccc(F)nc3C)cc12)C(C)(C)C [Example 501, (S)-8-chloro-6-(((1-(1-(difluoromethyl)-cyclopropyl)-1H-1,2,3-triazol-4-yl)(6-fluoro-2-methylpyridin-3-yl)methyl)amino)-4-((2,2-dimethylpropyl-1,1-d2)amino)-quinoline-3-carbonitrile] | 7.26 | 8.52 | – |
| C[C@@H](CF)n1cc([C@@H](Nc2cc(C#N)c3ncc(C#N)c(NCC(C)(C)C)c3c2)c2cccc3ncccc23)nn1 [Example 892, 6-(((S)-(1-((S)-1-fluoropropan-2-yl)-1H-1,2,3-triazol-4-yl)(quinolin-5-yl)methyl)amino)-4-(neopentylamino)quinoline-3,8-dicarbonitrile] | – | – | pEC50 (TNFα; [1]): 7.36; pIC50 (Human Cot; [2]): 8.70 |
